Measurements reported in ChEMBL document CHEMBL5550096, “Casitas b cell lymphoma‑B (Cbl-b): A new therapeutic avenue for small-molecule immunotherapy” (Bioorg Med Chem, 2024).
Values belong to the compound of their own block, whether it stands above or below them. Where a SMILES comes first, the peptide text is derived from it. [ ]: non-standard residue; d: D form. The star is where a group is joined. pY = N[C@@H](Cc1ccc(OP(=O)(O)O)cc1)C(=O)O; Myristoyl = CCCCCCCCCCCCCC(=O)*

Key:
[1] = molecular target: T1, E3 ubiquitin-protein ligase CBL-B (Homo sapiens, UniProt Q13191); experiment: Inhibition of Cbl-b (unknown origin) ubiquitination by TR-FRET assay
[2] = molecular target: T1, E3 ubiquitin-protein ligase CBL-B; experiment: Inhibition of Cbl-b (unknown origin) by TR-FRET assay
[3] = molecular target: T1, E3 ubiquitin-protein ligase CBL-B
Description: Binding affinity to CBl-b (unknown origin) assessed as dissociation constant by Surface plasmon resonance

[4] = Intrinsic clearance in mouse liver microsomes by HPLC-MS/MS analysis
[5] = Half life in rat plasma; assay type: ADME, cell-free
[6] = molecular target: T1, E3 ubiquitin-protein ligase CBL-B; experiment: Inhibition of recombinant Cbl-b (unknown origin) ubiquitination incubated for 1 hr by TR-FRET assay
[7] = molecular target: T1, E3 ubiquitin-protein ligase CBL-B; experiment: Inhibition of Cbl-b (unknown origin)
[8] = molecular target: T1, E3 ubiquitin-protein ligase CBL-B; experiment: Inhibition of biotinylated recombinant Cbl-b (36 to 427 residues)(unknown origin) expressed in Escherichia coli BL21(DE3) measured for 1 hr by TR-FRET assay
[9] = molecular target: T1, E3 ubiquitin-protein ligase CBL-B; experiment: Inhibition of Cbl-b (unknown origin) by SPR assay
[10] = molecular target: T1, E3 ubiquitin-protein ligase CBL-B; experiment: Inhibition of Cbl-b (unknown origin) by HTRF assay
[11] = molecular target: T1, E3 ubiquitin-protein ligase CBL-B; experiment: Inhibition of N-terminal His-tagged human Cbl-b (40 to 426 residues) expressed in Escherichia coli by measured for 90 mins by HTRF method

T1 sequence (Q13191 whole entry): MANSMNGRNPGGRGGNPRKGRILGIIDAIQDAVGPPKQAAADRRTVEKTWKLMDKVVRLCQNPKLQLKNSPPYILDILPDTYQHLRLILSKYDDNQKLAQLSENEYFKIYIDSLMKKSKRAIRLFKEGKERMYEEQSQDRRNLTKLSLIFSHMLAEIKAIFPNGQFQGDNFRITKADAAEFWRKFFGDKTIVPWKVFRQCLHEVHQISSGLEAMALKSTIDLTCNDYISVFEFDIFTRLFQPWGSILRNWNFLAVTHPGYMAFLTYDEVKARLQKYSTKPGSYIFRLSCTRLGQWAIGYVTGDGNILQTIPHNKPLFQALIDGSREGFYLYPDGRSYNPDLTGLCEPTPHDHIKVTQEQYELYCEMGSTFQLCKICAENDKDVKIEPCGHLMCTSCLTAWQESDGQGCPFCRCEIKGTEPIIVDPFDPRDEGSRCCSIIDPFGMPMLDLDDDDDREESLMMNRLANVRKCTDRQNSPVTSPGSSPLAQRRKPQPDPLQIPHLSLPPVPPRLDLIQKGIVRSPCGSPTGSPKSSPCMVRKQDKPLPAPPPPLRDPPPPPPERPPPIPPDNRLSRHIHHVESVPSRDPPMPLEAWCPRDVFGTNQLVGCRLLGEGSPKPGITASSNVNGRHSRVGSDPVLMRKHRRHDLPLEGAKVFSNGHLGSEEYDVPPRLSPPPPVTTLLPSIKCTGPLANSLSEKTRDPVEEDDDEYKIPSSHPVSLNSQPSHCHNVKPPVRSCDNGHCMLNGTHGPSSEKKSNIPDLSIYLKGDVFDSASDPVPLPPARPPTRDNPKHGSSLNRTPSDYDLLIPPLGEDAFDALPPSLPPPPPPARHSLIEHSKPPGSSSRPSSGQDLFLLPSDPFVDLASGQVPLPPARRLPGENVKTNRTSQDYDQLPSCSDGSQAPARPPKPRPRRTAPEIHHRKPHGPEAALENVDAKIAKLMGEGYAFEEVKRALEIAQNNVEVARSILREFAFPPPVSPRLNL

SMILES: Cc1cc(C(=O)Nc2cccc(C3(Cc4nncn4C)COC3)c2)nc(C2CC2)n1
IC50 [1]: 21 nM
IC50 [2]: 20 nM
Kd [3]: 20 nM

SMILES: C[C@H](Sc1nncn1C)c1cccc(NC(=O)c2ccnc(C3CC3)n2)c1
CLint scaled [4]: 500 mL/min/kg
half-life [5]: 2.33 h

SMILES: Cn1cnnc1C(F)(F)[C@](C)(F)c1cccc(NC(=O)N2CC3(CNC3)Oc3cccnc32)c1
IC50 [7]: < 100 nM
IC50 [8]: < 100 nM

SMILES: C[C@H](Cc1nncn1C)c1cccc(-c2n[nH]c3c(CN4CC[C@H](F)C4)cc(C(F)(F)F)nc23)c1
IC50 [7]: < 100 nM
IC50 [8]: < 100 nM

SMILES: Cn1cnnc1-c1cc(C#N)ccc1-c1cc(C2CC2)nc(N2Cc3c(cc(CNCC4(F)CCC4)cc3C(F)(F)F)C2=O)c1
IC50 [9]: 200 nM
IC50 [10]: < 200 nM

SMILES: Cn1cnnc1[C@]1(c2cccc(NC(=O)c3cc(CN4CCC[C@H](C(F)F)C4)cn4ccnc34)c2)C[C@H](CC#N)C1
IC50 [7]: 5 nM
IC50 [11]: 1 nM

SMILES: Cn1cnnc1[C@]1(c2cccc(-c3cnc4c(C(F)(F)F)cc(CN5CC6CC(C)(C6)C5)cn4c3=O)c2)C[C@H](C)C1
IC50 [7]: 20 nM
IC50 [11]: 25 nM

SMILES: CO[C@@]1(C(=O)N/C=C/c2ccc(O)cc2)O[C@](O)(C(=O)N/C=C/c2ccc(O)cc2)[C@@H](c2ccc(O)c(O)c2)[C@@H]1c1ccc(O)c(O)c1
IC50 [7]: 11000 nM

SMILES: O=C(N/C=C/c1ccc(O)cc1)c1c(-c2ccc(O)c(O)c2)c(-c2ccc(O)c(O)c2)c(C(=O)N/C=C/c2ccc(O)cc2)n1CCc1ccc(O)cc1
IC50 [7]: 6500 nM

SMILES: CC(C)[C@H]1CN(C)CCN1Cc1cc(C(=O)Nc2cccc(C3([C@@H](F)c4nncn4C)CC(F)(F)C3)c2)nc(C2CC2)c1
IC50 [1]: 7 nM
IC50 [10]: 7 nM

SMILES: CCCCCCCCCCCCCC(=O)N[C@@H](CC(=O)O)C(=O)NCC(=O)N[C@@H](Cc1ccc(OP(=O)(O)O)cc1)C(=O)N[C@@H](CCSC)C(=O)N1CCC[C@H]1C(=O)O (Myristoyl-DG[pY]MP-OH)
IC50 [6]: 30000 nM

The remaining lines, values ahead:

IC50 [6]: < 5 nM
IC50 [1]: < 5 nM
Kd [3]: 8 nM
SMILES: C[C@H]1CCCN(Cc2cc3c(c(C(F)(F)F)c2)CN(c2cccc([C@]4(c5nncn5C)C[C@@H](C)C4)c2)C3=O)C1

IC50 [9]: 4 nM
Kd [3]: 4 nM
SMILES: COCC1(NCc2cc3c(c(C(F)(F)F)c2)CN(c2cccc([C@]4(c5nncn5C)C[C@H](OC)C4)c2)C3=O)CC1

IC50 [7]: 10 nM
IC50 [11]: 13 nM
SMILES: Cc1cc(CNC2(C)CCC2)cc2c(=O)c(-c3cccc([C@]4(c5nncn5C)C[C@@H](C)C4)c3)coc12

IC50 [7]: 11000 nM
IC50 [11]: 4 nM
SMILES: CC(c1cc(C(=O)Nc2cccc([C@]3(c4nncn4C)C[C@@H](CC#N)C3)c2)nc2cc[nH]c12)N1CCC[C@H](C)C1 (stereo partly specified)

IC50 [7]: < 200 nM
IC50 [8]: < 200 nM
SMILES: C[C@H]1CCCN(Cc2cc(C(F)(F)F)c3[nH]c(-c4cccc([C@]5(c6nncn6C)C[C@@H](C)C5)c4)nc3c2)C1

IC50 [6]: < 100 nM
IC50 [7]: < 100 nM
IC50 [8]: < 100 nM
SMILES: Cn1cnnc1[C@]1(c2cccc(-n3cc4c(C(F)(F)F)cc(CN5CCC6(CC6)C5)cn4c3=O)c2)C[C@H](C)C1

IC50 [9]: 20 nM
IC50 [10]: 20 nM
SMILES: Cn1cnnc1[C@]1(c2cccc(N3C(=O)c4cc(CNC5(C)CCC5)cc5cccc3c45)c2)C[C@H](C)C1
